Reference: article PMC9011347, “Small-Molecule Inhibitors Targeting Lipolysis in Human Adipocytes” (Journal of the American Chemical Society, 2022)

What was measured:
Assay in all cases: Off-target lipid hydrolase assay, Expi293 lysates, p-NPV substrate
Assay type in all cases: biochemical
Settings in all cases: NG-497 100 µM, substrate pNPV
HSL = HSL (Homo sapiens, UniProt Q05469)
Method: (§1) Fig. S3: Investigation of off-target effects of NG-497 on structurally and functionally related lipid hydrolases. (a) PNPLA1-dependent formation of acylceramides was monitored in a cell-based assay in HEK293T cells. Experiments were performed in the presence or absence of NG-497 (40 µM) and the non-selective lipase inhibitor Orlistat (40 µM). Orlistat, but not NG-497, inhibited PNPLA1/CGI-58-dependent ω-O-acylceramide formation. (b-h) Enzymes were overexpressed in Expi293 cells and cell lysates were used as source of enzymatic activity. Cell lysates were incubated with the indicated substrates 1-oleoyl phosphatidylcholine (LPC), di-oleoyl phosphatidic acid (PA), di-octanoyl phosphatidylglycerol (PG), or para-nitrophenylvalerate (pNPV). Experiments were performed in the presence or absence of NG-497 (100 µM) and the formation of reaction products was monitored. Cell lysates of LacZ-transfected cells were used to detect basal cellular activity. As positive controls, enzymes were inactivated with lipase inhibitors Orlistat (40 µM), R-BEL (10 µM), KLH-45 (20 nM), HSLi (10 µM), or PMSF (10µM).
(§2) Data were calculated relative to the basal activity detected in LacZ-transfected controls. (i) Activity of purified human pancreatic lipase in the presence or absence of NG-497 (100 µM) and Orlistat (20 µM) using radiolabeled triolein as substrate. (j) Inhibition of LPL and HL by NG-497 (100 µM) was investigated in human post-heparin plasma using radiolabeled triolein as substrate.
(§3) LPL activity was inhibited using an anti-LPL antibody. All data are presented as mean ± S.D. Statistical significance was determined via ANOVA followed by Bonferroni post hoc test ( ***, p < 0.001).
(§4) (1 picture or pasted object on this page, not shown here)
(§5) Co-immunoprecipitation. […]
(§6) Analysis of toxicity in HepG2 hepatocytes. […] Release of LDH into the medium was analyzed using the Cytotoxicity Detection Kit PLUS (LDH) (MilliporeSigma) according to the manufacturer’s instructions. Cytotoxicity was calculated as relative LDH release as compared to fully lysed cells. […]

[1] = target: T1, carboxylesterase 2 (CES2) (Homo sapiens, UniProt O00748)
T1 construct: made in house; host or cells: Expi293 cells, lysate
Method: as §1, §2, §3, §4, §5, §6

[2] = target: T2, DDHD domain-containing protein 2 (DDHD2) (Homo sapiens, UniProt O94830)
T2 construct: made in house; host or cells: Expi293 cells, lysate
Method: as §1, §2, §3, §4, §5, §6

Chain of HSL (Q05469 302-1076 limits assumed): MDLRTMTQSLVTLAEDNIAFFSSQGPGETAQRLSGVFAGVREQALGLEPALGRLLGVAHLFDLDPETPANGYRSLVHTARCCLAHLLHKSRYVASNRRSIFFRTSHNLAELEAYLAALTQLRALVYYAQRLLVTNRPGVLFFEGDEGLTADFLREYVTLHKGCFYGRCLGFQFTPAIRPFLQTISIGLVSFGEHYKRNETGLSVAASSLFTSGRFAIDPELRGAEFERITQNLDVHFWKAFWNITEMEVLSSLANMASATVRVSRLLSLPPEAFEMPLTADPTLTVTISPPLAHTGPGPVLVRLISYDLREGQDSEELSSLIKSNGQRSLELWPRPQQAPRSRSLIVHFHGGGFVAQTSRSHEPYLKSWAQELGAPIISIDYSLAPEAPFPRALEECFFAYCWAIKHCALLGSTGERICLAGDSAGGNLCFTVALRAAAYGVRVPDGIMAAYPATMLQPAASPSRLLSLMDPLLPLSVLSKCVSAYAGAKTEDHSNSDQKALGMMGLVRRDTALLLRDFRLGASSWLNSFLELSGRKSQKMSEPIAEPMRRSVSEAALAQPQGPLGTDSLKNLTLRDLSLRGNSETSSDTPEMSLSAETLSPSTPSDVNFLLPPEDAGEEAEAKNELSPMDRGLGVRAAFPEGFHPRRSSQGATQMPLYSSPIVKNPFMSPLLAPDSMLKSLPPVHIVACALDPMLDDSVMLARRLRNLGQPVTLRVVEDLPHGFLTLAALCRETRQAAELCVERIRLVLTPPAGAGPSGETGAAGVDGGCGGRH
T2 sequence (O94830 whole entry, the tested form may be a part): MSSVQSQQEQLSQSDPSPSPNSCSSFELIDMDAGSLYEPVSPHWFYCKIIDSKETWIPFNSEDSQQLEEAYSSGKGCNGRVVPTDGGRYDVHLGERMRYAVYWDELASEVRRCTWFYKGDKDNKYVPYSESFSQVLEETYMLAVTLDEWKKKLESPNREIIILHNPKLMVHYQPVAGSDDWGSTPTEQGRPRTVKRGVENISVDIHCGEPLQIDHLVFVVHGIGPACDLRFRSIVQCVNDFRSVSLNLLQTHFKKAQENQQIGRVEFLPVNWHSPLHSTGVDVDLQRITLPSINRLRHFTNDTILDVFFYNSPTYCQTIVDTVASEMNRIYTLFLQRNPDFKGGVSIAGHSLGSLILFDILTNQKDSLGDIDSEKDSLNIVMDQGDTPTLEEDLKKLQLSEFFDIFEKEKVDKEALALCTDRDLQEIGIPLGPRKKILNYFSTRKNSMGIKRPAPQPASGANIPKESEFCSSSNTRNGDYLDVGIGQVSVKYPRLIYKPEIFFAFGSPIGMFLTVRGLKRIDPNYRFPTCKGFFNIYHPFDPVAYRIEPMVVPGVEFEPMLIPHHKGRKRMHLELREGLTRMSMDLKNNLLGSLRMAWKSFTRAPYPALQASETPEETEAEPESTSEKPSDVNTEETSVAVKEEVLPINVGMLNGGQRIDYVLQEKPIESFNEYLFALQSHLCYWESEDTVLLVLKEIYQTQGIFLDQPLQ
T1 sequence (O00748 27-559): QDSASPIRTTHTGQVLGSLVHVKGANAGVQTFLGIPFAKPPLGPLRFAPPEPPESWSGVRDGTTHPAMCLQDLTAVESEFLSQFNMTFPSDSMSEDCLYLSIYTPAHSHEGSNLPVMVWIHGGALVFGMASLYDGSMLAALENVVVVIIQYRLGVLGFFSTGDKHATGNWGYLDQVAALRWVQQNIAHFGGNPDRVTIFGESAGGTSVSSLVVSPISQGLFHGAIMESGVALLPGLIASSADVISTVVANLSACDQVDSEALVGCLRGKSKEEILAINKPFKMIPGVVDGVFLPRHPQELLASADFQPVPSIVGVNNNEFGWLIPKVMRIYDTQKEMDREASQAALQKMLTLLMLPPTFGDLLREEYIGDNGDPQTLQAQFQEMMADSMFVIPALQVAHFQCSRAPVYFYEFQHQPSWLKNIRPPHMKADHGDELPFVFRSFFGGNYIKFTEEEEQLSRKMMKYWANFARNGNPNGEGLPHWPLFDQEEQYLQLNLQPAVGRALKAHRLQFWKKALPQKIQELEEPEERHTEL

CCOc1ccc(-c2cc(OC)cc(C(=O)OC(C)C)n2)cc1 [NG-497]
did not observe inhibition: inhibition of HSL (HSL) | inhibition of CES2 [1] | inhibition of DDHD2 [2]
